# Biological target: T1, D protease (Paenibacillus polymyxa, UniProt P29148)
# Test: Inhibition, activation and stabilization of D protease
# Format: biochemical
# Settings: not given
# T1 sequence (P29148 287-590): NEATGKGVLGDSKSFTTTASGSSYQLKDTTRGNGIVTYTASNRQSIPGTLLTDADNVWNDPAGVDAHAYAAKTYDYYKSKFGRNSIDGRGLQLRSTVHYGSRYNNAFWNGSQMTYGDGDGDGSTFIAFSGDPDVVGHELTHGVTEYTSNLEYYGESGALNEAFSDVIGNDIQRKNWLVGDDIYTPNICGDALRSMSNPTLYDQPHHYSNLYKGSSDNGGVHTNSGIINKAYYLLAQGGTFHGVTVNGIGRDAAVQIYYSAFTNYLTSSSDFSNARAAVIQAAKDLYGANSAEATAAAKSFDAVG
Structure (SMILES),Activation of D protease,Stabilization of D protease
[Zn+2] [zinc ion],activation thereof requires zinc ion,
[Ca+2] [Ca^2+],,stabilized

# Same assay, conditions: metal chelating agents and oxidizing agents
row,Structure (SMILES),Inhibition of D protease
1,O=C1CCC(=O)N1Br [N-bromosuccinimide],inhibited
2,"c1ccc(-c2ccccn2)nc1 [2,2-dipyridyl]",inhibited
3,O=C(O)CC(O)(CC(=O)O)C(=O)O [citric acid],inhibited
4,[F-].[Na+] [sodium fluoride],inhibited
5,II [iodine],inhibited
6,c1cnc2c(c1)ccc1cccnc12 [O-phenanthroline],inhibited

# Biological target: T1, D protease
# Test: not given
# Settings: Patent Document 1; cited from earlier work
row,Structure (SMILES),Effect on D protease activity
1,[Fe+2] [Fe^2+],activity enhanced
2,[Al+3] [Al^3+],activity enhanced
3,[Ca+2] [Ca^2+],activity enhanced
4,[Mn+2] [Mn^2+],activity enhanced
5,[Mg+2] [Mg^2+],activity enhanced
